Consider two compounds from patent US6441162B2, “Crystalline substance of cefditoren pivoxyl and the production of the same” (Meiji Seika Kaisha, Ltd., priority 1996, dated 2002).

The nature of the data set: Thermal stability on storage in sealed dry containers, residual Cefditoren pivoxyl by liquid chromatography. Format: physicochemical. Conditions: sealed dry container; for Residual quantity (%) of Cefditoren pivoxyl upon storage at 60° C., Initial content (at 0 day): initial content assumed to be 100%. The source says: In order to test the thermal stability on storage of the new crystalline substance of Cefditoren pivoxyl according to this invention, in comparison with the known, amorphous form of Cefditoren pivoxyl, there were employed a sample of the crystalline Cefditoren pivoxyl which was produced in Example 1 given hereinafter, as well as a sample of the amorphous Cefditoren pivoxyl which was produced by admixing a solution of amorphous Cefditoren pivoxyl in methanol with an aqueous iso-propanol to precipitate an amorphous powder of this compound and separating and drying this powder under a reduced pressure. These samples were separately placed in sealed dry containers and were stored for 1 month, for 2 months and for 4 months at 60° C. and at 40° C., respectively. After these storages, the samples were analysed by a liquid chromatographic method and percentages of the residual quantity of Cefditoren pivoxyl remaining in the stored samples were evaluated from the area under the absorption peak which was shown in the chromatogramms obtained. It is assumed that the initial content of Cefditoren pivoxyl in the test samples was 100% at the starting of the storages.

Take `CO/N=C(\C(=O)NC1C(=O)N2C(C(=O)OCOC(=O)C(C)(C)C)=C(/C=C\c3scnc3C)CS[C@H]12)c1csc(N)n1` (some centres unmarked) [Crystalline substance, 7-[(Z)-2-(2-aminothiazol-4-yl)-2-methoxyiminoacetamido]-3-[(Z)-2-(4-methylthiazol-5-yl)ethenyl]-3-cephem-4-carboxylic acid pivaloyloxymethyl ester]: the “Residual quantity (%) of Cefditoren pivoxyl upon storage at 60° C., After 1 month” value is 99%; the “Residual quantity (%) of Cefditoren pivoxyl upon storage at 60° C., After 2 months” value (“Residual quantity (%) … After 2 months” for short) is listed as 99%; the “Residual quantity (%) of Cefditoren pivoxyl upon storage at 60° C., Initial content (at 0 day)” value is 100%. Moreover, the “Residual quantity of Cefditoren pivoxyl after the 4-month storage at 40° C.” value (40° C., 4 months) amounted to 99%. Also, where the note is “listed as crystalline substance of Cefditoren pivoxyl”, the “Residual quantity (%) … After 2 months” value came to 99%.

With `CO/N=C(\C(=O)NC1C(=O)N2C(C(=O)OCOC(=O)C(C)(C)C)=C(/C=C\c3scnc3C)CS[C@H]12)c1csc(N)n1` (some centres unmarked) [Amorphous substance, 7-[(Z)-2-(2-aminothiazol-4-yl)-2-methoxyiminoacetamido]-3-[(Z)-2-(4-methylthiazol-5-yl)ethenyl]-3-cephem-4-carboxylic acid pivaloyloxymethyl ester, reference compound], the “Residual quantity (%) of Cefditoren pivoxyl upon storage at 60° C., After 1 month” value is on record as 93%; the “Residual quantity (%) … After 2 months” value is 88%; the “Residual quantity (%) of Cefditoren pivoxyl upon storage at 60° C., Initial content (at 0 day)” value was found to be 100%.
